Reference: US20070071782A1, “2-Cyanobenzenesulfonamides for combating animal pests” (priority 2003, published 2007)

Assays:
Format in all cases: in vivo
[1] = test system: Cotton Aphid (Aphis gossypii); test: Cotton Aphid cotyledon-dip test on cotton plants; settings: 120 h, after 5 days, read-out: mortality in comparison with untreated controls
Source text: (§1) The active compounds were formulated in 50:50 acetone:water and 100 ppm Kinetic® surfactant.
Cotton plants in the cotyledon stage (variety ‘Delta Pine’, one plant per pot) were infested by placing a heavily infested leaf from the main colony on top of each cotyledons. The aphids were allowed to transfer to the host plant overnight, and the leaf used to transfer the aphids were removed. The cotyledons were dipped in the test solution and allowed to dry. After 5 days, mortality counts were made.

[2] = test system: Green Peach Aphid (Myzus persicae); test: Green Peach Aphid leaf-dip test on pepper plants; settings: foliar, 120 h, after 5 days, read-out: mortality in comparison with untreated controls
Method: as §1
Pepper plants in the 2nd leaf-pair stage (variety ‘California Wonder’) were infested with approximately 40 laboratory-reared aphids by placing infested leaf sections on top of the test plants. The leaf sections were removed after 24 hr. The leaves of the intact plants were dipped into gradient solutions of the test compound and allowed to dry. Test plants were maintained under fluorescent light (24 hour photoperiod) at about 25° C. and 20-40% relative humidity. Aphid mortality on the treated plants, relative to mortality on check plants, was determined after 5 days.

[3] = test system: Argentine ants, Linepithema humile; test: whole plant or invertebrate; settings: for mortality at 1 % strength: Linepithema humile, 144 h, read-out: Mean cumulative % mortality 6 days after treatment
Method: • a) The tests were conducted in petri dishes. Ants were given a water source and then were starved of a food source for 24 hours. Baits were prepared with 20% honey/water solution. A solution of the active ingredient in acetone was added to reach a concentration of the active ingredient of 1% by weight (w/w). 0.2 ml of the active ingredient containing honey/water solution, placed in a cap, was added to each dish. The dishes were covered and maintained at a water temperature of 22° C. […]
b) The tests were conducted as in example a). The following compounds I and II according to EP 33984 were used as comparative examples.

Compound	mortality at 300 ppm [2]	mortality compared to untreated controls ([3]; in vivo)	also measured
CCNS(=O)(=O)c1ccc(Cl)c(C)c1C#N [Compound 3, Ethyl-(4-chloro-2-cyano-3-methyl-phenyl)sulfonamide]	> 85%		mortality at 300 ppm [1]: > 85%
N#Cc1c(OC(F)F)cccc1S(N)(=O)=O [Compound 78]		100%	
CCNS(=O)(=O)c1cccc(Cl)c1C#N [Comparative Example II, reference compound]			mortality at 1 % strength [3]: 35.6%
CNS(=O)(=O)c1cccc(OC)c1C#N [Compound 2, Methyl-(2-cyano-3-methoxy-phenyl)sulfonamide]	> 85%		mortality at 300 ppm [1]: > 85%
CCCNS(=O)(=O)c1cccc(C)c1C#N [Compound 1, n-Propyl-(2-cyano-3-methyl-phenyl)sulfonamide]	> 85%		
CCNS(=O)(=O)c1cccc(OC(F)F)c1C#N [Compound 66]		100%	Mean cumulative % mortality 6 days after treatment ([3]; in vivo): 100.0%
CCN(CC)S(=O)(=O)c1cccc(Cl)c1C#N [Comparative Example I, reference compound]			mortality at 1 % strength [3]: 35.6%
C#CCNS(=O)(=O)c1cccc(OC(F)F)c1C#N [Compound 79]		100%	
